We go through two compounds from ChEMBL document CHEMBL6182861, “Structural modification of heptamethine indocyanine dyes with improved aqueous solubility and stability for photothermal therapy” (Eur J Med Chem, 2025).

Active and inactive are the calls of the source. No cut-off for these calls is given here.

Data set [1] is described as follows: Drug excretion in female BALB/c mouse bearing mouse 4T1 cells at 1.8 mg/kg, iv measured up to 12 hrs by fluorescence imaging analysis. Type of data set: ADME, organism-based. Particulars: in vivo.
A short description of data set [2]: Toxicity in female BALB/c mouse bearing mouse 4T1 cells assessed as body weight at 1.8 mg/kg, iv pretreated for 4 hrs followed by exposure to laser irradiation of 808 nm for 5 mins on every 2 days treated for 15 days. Type of data set: organism-based. As to conditions: in vivo, 360 h, time 15 day.
Data set [3] in a line: Toxicity in ICR mouse bearing mouse H22 cells assessed as damage in liver at 1.8 mg/kg, iv pretreated for 4 hrs followed by exposure to laser irradiation of 808 nm for 5 mins on every 2 days treated for 15 days by H and E staining based analysis. Type of data set: organism-based. Particulars: in vivo, 360 h, time 15 day.
Data set [4] deals with 4T1. The experiment in a line: Antitumor activity against mouse 4T1 cells implanted in female BALB/c mouse assessed as decrease in tumor volume at 1.8 mg/kg, iv treated for 4 hrs on every 2 days treated for 15 days. As to conditions: time 15.0 day. It counts as functional, organism-based.
Data set [5] relates to HepG2. The experiment in a line: Photothermal cytotoxicity against human HepG2 cells up to 25 uM preincubated for 4 hrs followed by exposure to laser irradiation of 808 nm for 2 mins and subsequent incubation for 20 hrs by MTT assay. As to conditions: time 1442.0 min. Type of data set: functional, cell-based.
The nature of data set [6]: Biodistribution in liver of female BALB/c mouse bearing mouse 4T1 cells at 1.8 mg/kg, iv measured up to 12 hrs by fluorescence imaging analysis. It counts as ADME, organism-based. As to conditions: in vivo.
A short description of data set [7]: Toxicity in ICR mouse bearing mouse H22 cells assessed as damage in kidney at 1.8 mg/kg, iv pretreated for 4 hrs followed by exposure to laser irradiation of 808 nm for 5 mins on every 2 days treated for 15 days by H and E staining based analysis. Type of data set: organism-based. Particulars: in vivo, 360 h, time 15 day.
Data set [8] is described as follows: Toxicity in ICR mouse bearing mouse H22 cells assessed as damage in lung at 1.8 mg/kg, iv pretreated for 4 hrs followed by exposure to laser irradiation of 808 nm for 5 mins on every 2 days treated for 15 days by H and E staining based analysis. It counts as organism-based. Particulars: in vivo, 360 h, time 15 day.
Data set [9] can be described thus: Toxicity in female BALB/c mouse bearing mouse 4T1 cells assessed as damage in heart at 1.8 mg/kg, iv pretreated for 4 hrs followed by exposure to laser irradiation of 808 nm for 5 mins on every 2 days treated for 15 days by H and E staining based analysis. It counts as organism-based. As to conditions: in vivo, 360 h, time 15 day.
Data set [10] is described as follows: Toxicity in female BALB/c mouse bearing mouse 4T1 cells assessed as damage in lung at 1.8 mg/kg, iv pretreated for 4 hrs followed by exposure to laser irradiation of 808 nm for 5 mins on every 2 days treated for 15 days by H and E staining based analysis. Type of data set: organism-based. As to conditions: in vivo, 360 h, time 15 day.
Data set [11] is described as follows: Drug accumulation in tumor of female BALB/c mouse bearing mouse 4T1 cells at 1.8 mg/kg, iv measured up to 12 hrs by fluorescence imaging analysis. It counts as ADME, organism-based, Neoplasm. Particulars: in vivo.
Data set [12] is described as follows: Drug accumulation in tumor of female BALB/c mouse bearing mouse 4T1 cells assessed as increase in fluorescence intensity at 1.8 mg/kg, iv measured after 4 hrs by fluorescence imaging analysis. Type of data set: ADME, organism-based, Neoplasm. As to conditions: in vivo.
Another data set deals with Mus musculus. The experiment in a line: Photothermal effect in female BALB/c mouse bearing mouse 4T1 cells at 42 degreeC at 1.8 mg/kg, iv pretreated for 4 hrs followed by exposure to laser irradiation of 808 nm for 5 mins. As to conditions: time 245.0 min. Type of data set: functional, organism-based.
Data set [13] in a line: Toxicity in ICR mouse bearing mouse H22 cells assessed as damage in spleen at 1.8 mg/kg, iv pretreated for 4 hrs followed by exposure to laser irradiation of 808 nm for 5 mins on every 2 days treated for 15 days by H and E staining based analysis. Type of data set: organism-based. As to conditions: in vivo, 360 h, time 15 day.
For data set [14], the system named is 4T1. The experiment in a line: Antitumor activity against mouse 4T1 cells implanted in female BALB/c mouse assessed as tumor growth inhibition at 1.8 mg/kg, iv pretreated for 4 hrs followed by exposure to laser irradiation of 808 nm for 5 mins on every 2 days treated for 15 days. Type of data set: functional, organism-based. As to conditions: time 15.0 day.

The test system of data set [15] is 4T1. The experiment in a line: Antitumor activity against mouse 4T1 cells implanted in female BALB/c mouse assessed as cellular damage at 1.8 mg/kg, iv pretreated for 4 hrs followed by exposure to laser irradiation of 808 nm for 5 mins on every 2 days treated for 15 days by H and E staining based analysis. Type of data set: functional, organism-based. Particulars: time 15.0 day.

In another data set the test system is Mitochondrial membrane. The experiment in a line: Inhibition of mitochondrial membrane potential in human HepG2 cells assessed as green fluorescence at 3.12 uM preincubated for 4 hrs followed by exposure to laser irradiation of 808 nm for 2 mins and subsequent incubation for 20 hrs by JC-1 dye based analysis. Type of data set: cell membranes. Particulars: time 1442.0 min.

Data set [16] can be described thus: Toxicity in ICR mouse bearing mouse H22 cells assessed as damage in spleen at 2.5 mg/kg, iv pretreated for 4 hrs followed by exposure to laser irradiation of 808 nm for 5 mins on every 2 days treated for 15 days by H and E staining based analysis. It counts as organism-based. As to conditions: in vivo, 360 h, time 15 day.
Data set [17] in a line: Toxicity in ICR mouse bearing mouse H22 cells assessed as damage in liver at 2.5 mg/kg, iv pretreated for 4 hrs followed by exposure to laser irradiation of 808 nm for 5 mins on every 2 days treated for 15 days by H and E staining based analysis. Type of data set: organism-based. As to conditions: in vivo, 360 h, time 15 day.
Data set [18] concerns 4T1. The experiment in a line: Antitumor activity against mouse 4T1 cells implanted in female BALB/c mouse assessed as nuclei rupture at 2.5 mg/kg, iv pretreated for 4 hrs followed by exposure to laser irradiation of 808 nm for 5 mins on every 2 days treated for 15 days by H and E staining based analysis. It counts as functional, organism-based. Particulars: time 15.0 day.

The subject of data set [19] is 4T1. The experiment in a line: Cytotoxicity against mouse 4T1 cells assessed as cell viability under dark condition up to 25 uM incubated for 24 hrs by MTT assay relative to control. It counts as functional. A general note: Tetrazolium dyes change colour on reduction, which living cells bring about.
Data set [20] is described as follows: Toxicity in female BALB/c mouse bearing mouse 4T1 cells assessed as damage in heart at 2.5 mg/kg, iv pretreated for 4 hrs followed by exposure to laser irradiation of 808 nm for 5 mins on every 2 days treated for 15 days by H and E staining based analysis. As to conditions: in vivo, 360 h, time 15 day. Type of data set: organism-based.
The subject of data set [21] is 4T1. The experiment in a line: Antitumor activity against mouse 4T1 cells implanted in female BALB/c mouse assessed as decrease in tumor volume at 2.5 mg/kg, iv treated for 4 hrs on every 2 days treated for 15 days. It counts as functional, organism-based. As to conditions: time 15.0 day.
The subject of data set [22] is 4T1. The experiment in a line: Antitumor activity against mouse 4T1 cells implanted in female BALB/c mouse assessed as necrotic tissue at 2.5 mg/kg, iv pretreated for 4 hrs followed by exposure to laser irradiation of 808 nm for 5 mins on every 2 days treated for 15 days by H and E staining based analysis. It counts as functional, organism-based. As to conditions: time 15.0 day.

Data set [23] deals with 4T1. Put plainly: Antitumor activity against mouse 4T1 cells implanted in female BALB/c mouse assessed as tumor growth inhibition at 2.5 mg/kg, iv pretreated for 4 hrs followed by exposure to laser irradiation of 808 nm for 5 mins on every 2 days treated for 15 days. It counts as functional, organism-based. As to conditions: time 15.0 day.
The nature of data set [24]: Toxicity in ICR mouse bearing mouse H22 cells assessed as damage in kidney at 2.5 mg/kg, iv pretreated for 4 hrs followed by exposure to laser irradiation of 808 nm for 5 mins on every 2 days treated for 15 days by H and E staining based analysis. It counts as organism-based. As to conditions: in vivo, 360 h, time 15 day.
The nature of data set [25]: Toxicity in ICR mouse bearing mouse H22 cells assessed as damage in heart at 2.5 mg/kg, iv pretreated for 4 hrs followed by exposure to laser irradiation of 808 nm for 5 mins on every 2 days treated for 15 days by H and E staining based analysis. It counts as organism-based. Particulars: in vivo, 360 h, time 15 day.
In data set [26] the test system is HepG2. Put plainly: Cytotoxicity against human HepG2 cells assessed as cell viability under dark condition up to 25 uM incubated for 24 hrs by MTT assay relative to control. It counts as functional.

Take `COC(=O)C(=C\C=C\C1=[N+](C)c2ccccc2C1(C)C)/C=C/C=C1/N(C)c2ccccc2C1(C)C.[I-]`: the Drug excretion result in data set [1] is given as “Active”. In addition, the Activity in data set [2] was 18 g; in data set [3], “Non-toxic”; in the data set with HepG2 [5] it was “Not active; Limited Photo-Thermal Toxicity Was Observed”; in data set [7], “Non-toxic”; in data set [8], “Non-toxic”; in data set [9], “Non-toxic”. Besides, the Activity entry in data set [10] is “Non-toxic”; in data set [13], “Non-toxic”; in the data set with 4T1 [15], “Not active; Minor Cell Damage Was Observed”. The result with 4T1 [4] was inactive. For the same compound, the Drug uptake result in [6], in data set [11] and in data set [12] was “Active” throughout. Moreover, the outcome in the data set on Mus musculus was Active. For the same compound, in the data set on 4T1 [14], the inhibition result was “Active; Minimal Effect Was Observed”.

For `COCCOCCOCCN1/C(=C/C=C/C(=C/C=C/C2=[N+](CCOCCOCCOC)c3ccccc3C2(C)C)C(=O)OC)C(C)(C)c2ccccc21.[I-]`, the inhibition result with Mitochondrial membrane and in the data set with 4T1 [23] was “Active” in each case. The Activity result in data set [16] is listed as “Non-toxic”; in [17], “Non-toxic”; in the data set with 4T1 [19], 55%; in data set [20], “Non-toxic”; in [24] it was “Non-toxic”; in data set [25] it was “Non-toxic”. The Activity in the data set with HepG2 [26] is 55%. Further, the outcome in the data set on 4T1 [18] and with 4T1 [22] was Active. The outcome in the data set on 4T1 [21] was inactive.
